The values that follow come from US11285160B2, “Pharmaceutical composition and method for treatment of non-alcoholic fatty liver disease” (MITSUBISHI TANABE PHARMA CORPORATION, priority 2016, dated 2022).

For one data set, the system named is CDAA diet-loaded rats. The data set can be described thus: Hepatic fibrosis development in NASH animal model (CDAA diet-loaded rat), repeated oral administration for 10 weeks. The class given is in vivo, F344 rats. The conditions noted are these: for Sirius red positive areas (%) (mean ± S.E.): primary endpoint; for Fibrosis development score (mean ± S.E.): score 0-4 (Table 3), secondary endpoint. The source says:
Some heads of F344 rats (5-week-old, body weight 67.5 to 87.5 g, purchased from Japan SLC, Inc.) were housed (for quarantine inspection and acclimatization) for 15 days while receiving a normal diet, and were then used as a test animal. The rats were divided into six treatment groups by stratified random allocation using body weight as a randomization factor (each 10 heads of the rats per group). The test compounds (that is, the compound (I) or eplerenone) were suspended into 0.5% aqueous carmellose sodium solution containing a vehicle (0.1% polyoxyethylene hydrogenated castor oil (HCO-60, manufactured by Nikko Chemicals Co., Ltd.)), and the resultant suspensions were used (10 mL/kg). The rats were loaded with a CDAA diet (choline deficient L-amino acid defined diet), and simultaneously with the loading, were received with a repeated oral administration of the above-mentioned compound (I) (1 mg/kg, 3 mg/kg, and 10 mg/kg) at once per day for 10 weeks (hereinafter, which is referred to as “Compound (I)-treated group”). Also, the rats that were loaded with the CDAA diet and were received with the administration of the above-mentioned vehicle (10 mL/kg) were assigned to “disease control group”, and also the rats that were loaded with the CSAA diet and were received with the administration of the above-mentioned vehicle (10 mL/kg) were assigned to “normal control group”. While, “positive control group” rats were loaded with the CDAA diet and were received with a repeated oral administration of eplerenone (100 mg/kg) at once per day for 10 weeks.
After the administration, the test tissues were sampled from lamella of the extracted liver, and the pathological specimens were constructed. Each effect of the respective test compound on NASH was examined using the Sirius red positive areas of the specimens as a primary endpoint. Also the fibrosis development scores of hepatic pathological specimens in each group were examined as the secondary endpoint.

Data set [1] deals with UGT enzymes (Uridine diphosphate glucuronosyltransferase). The experiment in a line: Main metabolic pathway of compound (I). The conditions noted are these: estimated. The class given is in vitro ADME.
Data set [2] addresses CYP3A4 (cytochrome P450 3A4) (Homo sapiens, UniProt P08684). The conditions noted are these: Non-Patent documents 12 and 13; cited from earlier work.
For data set [3] the following is noted: background statement; cited from earlier work.
[4] abbreviates: CDAA diet-loaded rats, 1 mg/kg oral once per day for 10 weeks.
[5] abbreviates: CDAA diet-loaded rats, 3 mg/kg oral once per day for 10 weeks.
Setting [6] is: CDAA diet-loaded rats, 10 mg/kg oral once per day for 10 weeks.
The mark [7] stands for this setting: CDAA diet-loaded rats, 100 mg/kg oral once per day for 10 weeks.

Structures are written as SMILES.

Sequence of CYP3A4 (cytochrome P450 3A4) (P08684 whole entry): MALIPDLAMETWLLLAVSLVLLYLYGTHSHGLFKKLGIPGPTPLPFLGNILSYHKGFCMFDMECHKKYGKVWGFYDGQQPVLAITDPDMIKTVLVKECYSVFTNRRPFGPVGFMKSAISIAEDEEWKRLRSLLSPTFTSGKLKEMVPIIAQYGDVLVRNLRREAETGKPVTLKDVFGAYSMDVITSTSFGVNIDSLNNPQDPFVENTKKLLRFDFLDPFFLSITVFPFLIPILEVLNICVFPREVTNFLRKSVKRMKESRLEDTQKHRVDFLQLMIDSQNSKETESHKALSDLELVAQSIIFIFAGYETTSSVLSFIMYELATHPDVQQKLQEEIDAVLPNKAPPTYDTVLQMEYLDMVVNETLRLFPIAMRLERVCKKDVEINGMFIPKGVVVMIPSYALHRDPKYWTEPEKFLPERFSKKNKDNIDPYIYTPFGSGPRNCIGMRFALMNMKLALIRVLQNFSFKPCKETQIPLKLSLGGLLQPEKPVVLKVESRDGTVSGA

Regarding `CC1(C)Oc2cc(NS(C)(=O)=O)ccc2N(c2ccc(F)cc2)C1=O` [Compound (I)], in the data set with CDAA diet-loaded rats (1 mg/kg, 3 mg/kg and 10 mg/kg-treated groups, all), the “Sirius red positive areas as compared with disease control group” value is on record as “significantly lower”. Also, in the data set with CDAA diet-loaded rats (3 mg/kg-treated group and 10 mg/kg-treated group), the “Fibrosis development scores as compared with disease control group” value was “significantly lower value”. Further, the “Sirius red positive areas (%) (mean ± S.E.)” value with CDAA diet-loaded rats (setting [4]) worked out at 4.0 ± 0.3 %; in the data set with CDAA diet-loaded rats (setting [5]) it was 3.6 ± 0.4 %; in the data set with CDAA diet-loaded rats (setting [6]) it was 1.8 ± 0.2 %. For the same molecule, the figures for the “Fibrosis development score (mean ± S.E.)” value in the data set with CDAA diet-loaded rats (setting [4]), in the data set with CDAA diet-loaded rats (setting [5]) and with CDAA diet-loaded rats (setting [6]) were 3.0 ± 0.0, 2.7 ± 0.2 and 2.2 ± 0.1, respectively. Further, the “Progression of fibrosis development of liver” value with CDAA diet-loaded rats (CDAA diet-loaded rats, overall conclusion) is “significantly inhibit”. Also, the “Sirius red positive area value at the lowest dose in comparison with eplerenone at a higher dose” value in the data set with CDAA diet-loaded rats (compound (I) lowest dose (1 mg/kg) vs eplerenone 100 mg/kg) is recorded as “significantly lower area value”. Also, in data set [1], the Main metabolic pathway entry is “glucuronide conjugation by UGT enzymes”.
For the molecule `COC(=O)[C@@H]1CC2=CC(=O)CC[C@]2(C)[C@@]23O[C@@H]2C[C@@]2(C)[C@@H](CC[C@@]24CCC(=O)O4)[C@H]13` [Eplerenone, eplerenone, reference compound], the “Fibrosis development scores as compared with disease control group” value in the data set on CDAA diet-loaded rats (100 mg/kg, positive control group) is recorded as “not significantly different”. Also, in the data set on CDAA diet-loaded rats (setting [7]), the “Sirius red positive areas (%) (mean ± S.E.)” value came out at 2.8 ± 0.2 % and the “Fibrosis development score (mean ± S.E.)” value is given as 3.0 ± 0.0. In data set [2], the Metabolizing enzyme entry is given as “metabolized mainly by CYP3A4”. The Half-life in blood result in data set [3] is on record as “short half-life”.
